1 molecule from ChEMBL document CHEMBL3351894, “Development and evaluation of ST-1829 based on 5-benzylidene-2-phenylthiazolones as promising agent for anti-leukotriene therapy” (Eur J Med Chem, 2015) can be followed below.

Data set [1] is described as follows: Cytotoxicity against human U937 cells at 30 uM after 48 hrs by LDH assay. The format is cell-based. Particulars: u-937, 48 h.
Data set [2] can be described thus: Cytotoxicity against human U937 cells assessed as cell viability after 48 hrs by WST-1 assay. Format: cell-based. The note with it: U-937, 48 h.
Data set [3] deals with T1, Polyunsaturated fatty acid 5-lipoxygenase (Homo sapiens) (UniProt P09917).
T1 sequence (whole entry): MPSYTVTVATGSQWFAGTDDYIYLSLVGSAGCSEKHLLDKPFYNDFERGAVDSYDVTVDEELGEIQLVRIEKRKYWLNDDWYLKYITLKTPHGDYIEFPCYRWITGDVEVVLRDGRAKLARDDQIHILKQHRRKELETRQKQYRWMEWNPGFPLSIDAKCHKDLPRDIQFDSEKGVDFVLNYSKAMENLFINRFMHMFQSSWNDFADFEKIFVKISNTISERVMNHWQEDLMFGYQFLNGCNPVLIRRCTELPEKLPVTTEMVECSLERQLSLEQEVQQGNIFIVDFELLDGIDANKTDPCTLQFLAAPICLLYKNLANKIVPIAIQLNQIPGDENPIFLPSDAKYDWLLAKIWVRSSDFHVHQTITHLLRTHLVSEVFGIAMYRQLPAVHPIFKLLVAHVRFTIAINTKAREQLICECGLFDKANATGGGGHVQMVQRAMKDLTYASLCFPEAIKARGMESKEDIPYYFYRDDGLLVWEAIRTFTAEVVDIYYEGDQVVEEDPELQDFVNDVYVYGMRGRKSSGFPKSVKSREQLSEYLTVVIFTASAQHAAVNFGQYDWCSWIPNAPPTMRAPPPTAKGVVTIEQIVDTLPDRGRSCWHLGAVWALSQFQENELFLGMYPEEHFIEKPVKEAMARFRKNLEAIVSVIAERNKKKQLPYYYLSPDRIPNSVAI
Kind of data set: Inhibition of 5-LO in human PMNL using arachidonic acid as substrate assessed as product formation at 1 to 10 uM incubated for 15 mins prior to substrate addition measured after 10 mins by HPLC analysis in presence of 10% fetal calf serum.

Data set [4] has as its target T2, Polyunsaturated fatty acid lipoxygenase ALOX12 (Homo sapiens, UniProt P18054).
T2 sequence (P18054 whole entry): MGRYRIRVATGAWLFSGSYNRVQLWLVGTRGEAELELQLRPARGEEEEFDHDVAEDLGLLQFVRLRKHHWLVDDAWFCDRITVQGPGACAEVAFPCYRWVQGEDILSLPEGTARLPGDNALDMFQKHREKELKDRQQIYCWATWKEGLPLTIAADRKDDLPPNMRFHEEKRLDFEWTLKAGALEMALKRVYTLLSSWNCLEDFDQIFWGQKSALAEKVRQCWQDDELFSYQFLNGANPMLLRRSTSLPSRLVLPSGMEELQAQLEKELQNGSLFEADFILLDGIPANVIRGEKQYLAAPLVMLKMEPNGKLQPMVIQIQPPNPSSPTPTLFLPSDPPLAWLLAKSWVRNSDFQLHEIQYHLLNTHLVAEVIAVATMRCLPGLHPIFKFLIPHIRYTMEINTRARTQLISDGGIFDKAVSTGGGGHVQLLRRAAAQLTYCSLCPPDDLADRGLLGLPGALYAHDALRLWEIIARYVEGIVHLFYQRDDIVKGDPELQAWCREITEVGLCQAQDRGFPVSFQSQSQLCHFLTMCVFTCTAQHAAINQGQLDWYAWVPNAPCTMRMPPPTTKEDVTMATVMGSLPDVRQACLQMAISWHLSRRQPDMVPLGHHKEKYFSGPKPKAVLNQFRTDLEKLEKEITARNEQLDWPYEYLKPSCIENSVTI
Kind of data set: Inhibition of 12-LO (unknown origin).

The target in data set [5] is T3, Polyunsaturated fatty acid 5-lipoxygenase (Homo sapiens, UniProt P09917).
T3 sequence (P09917 whole entry): T1 sequence (whole entry)
Kind of data set: Inhibition of 5-LO in human PMNL S100 extract using arachidonic acid as substrate incubated for 15 mins prior to substrate addition measured after 10 mins by HPLC analysis.

Data set [6] has as its target T4, Polyunsaturated fatty acid lipoxygenase ALOX15 (Homo sapiens, UniProt P16050).
T4 sequence (P16050 whole entry): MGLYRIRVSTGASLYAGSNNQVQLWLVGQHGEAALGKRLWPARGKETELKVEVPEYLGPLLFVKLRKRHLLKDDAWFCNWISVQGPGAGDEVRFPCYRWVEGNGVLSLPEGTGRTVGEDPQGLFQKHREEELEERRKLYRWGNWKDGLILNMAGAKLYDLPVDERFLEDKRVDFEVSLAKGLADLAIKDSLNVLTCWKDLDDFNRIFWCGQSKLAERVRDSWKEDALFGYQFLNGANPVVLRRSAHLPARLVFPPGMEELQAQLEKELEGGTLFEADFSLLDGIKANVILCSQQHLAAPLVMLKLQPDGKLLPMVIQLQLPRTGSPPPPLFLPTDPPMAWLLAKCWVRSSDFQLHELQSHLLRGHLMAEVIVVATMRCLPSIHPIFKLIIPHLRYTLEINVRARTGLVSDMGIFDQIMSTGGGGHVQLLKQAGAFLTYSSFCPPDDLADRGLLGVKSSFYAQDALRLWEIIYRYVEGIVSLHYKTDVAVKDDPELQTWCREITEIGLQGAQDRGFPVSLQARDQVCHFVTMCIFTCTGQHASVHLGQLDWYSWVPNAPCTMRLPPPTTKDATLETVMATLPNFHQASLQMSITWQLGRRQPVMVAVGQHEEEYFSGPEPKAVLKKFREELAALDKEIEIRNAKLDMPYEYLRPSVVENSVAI
Kind of data set: Inhibition of 15-LO1 (unknown origin).

Data set [7] deals with T3, Polyunsaturated fatty acid 5-lipoxygenase. Kind of data set: Inhibition of 5-LO in human PMNL using arachidonic acid as substrate assessed as product formation incubated for 15 mins prior to substrate addition measured after 10 mins by HPLC analysis.
A short description of data set [8]: Solubility of the compound in PBS at pH 7.4 at RT. The format is physicochemical.
The nature of data set [9]: Solubility of the compound in DMSO at RT. Format: physicochemical.

Values after ≈ are worked out from the molar mass of the structure shown. Active and inactive are the calls of the source. The calls are words filed in the database; no cut-off is given here. Bounds are passed on as bounds.

A word on the IC50: it is the concentration that gives 50% inhibition. As a reminder, the solubility is the concentration that dissolves in the medium under given conditions. In [1], `COc1ccc(Cc2sc(-c3ccc(Cl)cc3)nc2O)cc1` registered an Activity of 4.09%. The IC50 was > 30 µM in [2]; > 10 µM in data set [4]; 0.03 µM in data set [5]; > 10 µM in data set [6]; 0.14 µM in data set [7]. Further, in [3], the inhibition result is “inactive”. The solubility in [8] came out at 0.08 mM (≈ 0.0265 mg/mL); in data set [9], 100 mM (≈ 33.2 mg/mL).
